From US9630964B2, “Fluoro-9-methyl-β-carbolines” (priority 2013, dated 2017)
In brackets after ≈: the same amount, converted by molar mass.

Experiments:
[1] = system: DRD2S (short variant of dopamine receptor subtype 2); test: Quantitative RT-PCR, relative gene expression of DRD2S in SH-SY5Y cells; assay type: cell-based, human; conditions: 30 μM each
Description: (§1) SH-SY5Y cell lines, which were provided by the institute of human genetics of university hospital Eppendorf and which they in turn received from Braunschweig resource center, were used again for the RT-PCR experiments (reverse transcriptase polymerase chain reaction) carried out for this purpose.
(§2) The cells were incubated in MEM (Minimum essential medium, Life Technologies) with 10% FCS (fetal calf serum, Biochrom AG) and penicillin/streptomycin (Biochrom AG). The cells were seeded with a density of 1×10^5 cells/cm^2 in 25 cm^2 cell culture bottles (Falcon, cell culture treated) with 5 mL medium. Stock solutions of 10 mmol/L of compounds 9-methyl-β-carboline (AC-002 or 9MβC) and 6-fluoro-9-methyl-β-carboline (AC-102 or 6F9MβC), respectively were prepared in distillated water and sterile filtered. One day after the cell seeding the compounds were added in corresponding amounts (5-55 μL) to reach final concentration in the medium of 10 μM, 20 μM and 30 μM for 6F9MβC and 30 μM, 50 μM and 70 μM for 9MβC. The references received only the corresponding amount of solvent (distilled water). The medium was changed once a week.
(§3) The cells were regularly microscopically examined and harvest after 2, 7 and 14 days of incubation time, washed with PBS and immediately frozen at −80° C.
(§4) The RNA-isolation was done with the HighPure RNA Isolation kit of the company Roche. This isolation includes a DNaseI digestion. The concentration of RNA was measured with nanoDrop spectrometer and the RNA integrity was determined with the aid of the Bioanalyzer 2100 (Agilent). By using random hexamer primers, protector RNA inhibitor (Roche) and transcriptor reverse transcriptase (fermentas), 300 ng RNA were transcribed into cDNA per each sample.
(§5) After the reaction, this run was diluted 1:4 and thereof 2 μL per each quantitative RT-PCR were used. This was performed in a LightCycler 480 under standard conditions in the SybrGreen format with annealing temperatures determined for each primer individually. If possible, exon spanning primers were used.
(§6) The specificity was verified by melting curve analysis and subsequent gel electrophoresis. For each PCR the PCR efficiency and the Cq value was determined by the program LinRegPCR and these were used in further calculations. B2M (β2-microglobulin) was identified from multiple reference genes to be suitable for examination conditions. All results are results relative to the corresponding reference conditions, at which only solvent was administered for the specified period of time (i.e. 2 days, 7 days or 14 days). In FIGS. 5A to 5I are also relative gene expressions (relative to reference conditions) presented. Here, the 2-day exposition is presented in light grey, the 7-day exposition in dark grey and the 14-day exposition in black. Every measured value from FIGS. 5A-5I represents a mean value of 3 independent biologic samples.
(§7) Analogous to example 4 RT-PCR experiments with the inventive active agent 7-fluoro-9-methyl-β-carboline (7F9MβC) were also performed for some important cellular factors. The experimental procedure was here identical to the experiments with 6-fluoro-9-methyl-β-carboline and 9-methyl-β-carboline. Here the same (like for 6F9MβC) final concentrations of 30 μM, 50 μM and 70 μM 7F9MβC for the culture medium were employed. The examined factors were BDNF (brain-derived neurotrophic factor), Lif (Leukemia inhibitory factor), DRD2S (short variant of dopamine receptor subtype 2) as well as DKK1 (Dickkopf-related protein 1). The same primers, that were already listed for the respective target genes in example 4 (Tab. 1) were used. As already noted, especially BDNF and Lif belongs to the most important factors for cellurar repair processes after traumas in the inner ear.

[2] = guinea pig, in vivo
Description: For better evaluation of half times of 9-methyl-β-carboline (9MβC), 6-fluoro-9-methyl-β-carboline (6F9MβC) and 7-fluoro-9-methyl-β-carboline (7F9MβC) in animal organism and more precisely in perilymph (the notified site of action), experiments with guinea pigs were conducted. Therefore, the respective active agent (in total 1.4 mg active agent per ear), packed in 40 μl of a hydrogel (18% Poloxamer 407 and 0.6% alginate), was administered at once in front of the membrane of the round window of narcotized guinea pigs. […] After expiry of the desired time (20 min, 2 h, 8 h or 24 h), each time 5 μL perilymph were removed under anesthesia from the top of the cochlea (apex). Subsequently, the animal was killed. Per each time (20 min, 2 h, 8 h or 24 h) measured values were taken of at least ears and averaged.
The concentration of the corresponding active agent in perilymph samples was determined by high-performance liquid chromatography (HPLC, partly also named as high-pressure liquid chromatography) and measurement of auto fluorescence of the respective active agent. For HPLC the eluent consisted to 45% of 90% acetonitrile and to 55% of ammonium acetate (40 mM, pH<5). The flow rate was 0.4 mL/min and injection volume was 10 μL. Each sample was diluted with 60% methanol, if the signal was too strong. After each run the injection needle was washed with 100% isopropanol. The detection limit was 20 fmol/L.
From the determined active agent concentrations the elimination half times were then calculated.

[3] = system: DKK1 (Dickkopf-related protein 1); test: Quantitative RT-PCR, relative gene expression of DKK1 in SH-SY5Y cells; assay type: cell-based, human; conditions: 30 μM each
Description: as §1, §2, §3, §4, §5, §6
as §7, with “The same primers, that were already listed for the respective target genes in example 4 (Tab. 1) were used. As already noted, especially BDNF and Lif belongs to the most important factors for cellurar repair processes after traumas in the inner ear.” left out

[4] = system: Lif (Leukemia inhibitory factor); test: Quantitative RT-PCR, relative gene expression of Lif in SH-SY5Y cells; assay type: cell-based, human; conditions: 30 μM each
Description: as §1, §2, §3, §4, §5, §6, §7

[5] = system: BDNF (brain-derived neurotrophic factor); test: Quantitative RT-PCR, relative gene expression of BDNF in SH-SY5Y cells; assay type: cell-based, human; conditions: 30 μM each
Description: as §1, §2, §3
The RNA-isolation was done with the HighPure RNA Isolation kit of the company Roche. […] The concentration of RNA was measured with nanoDrop spectrometer and the RNA integrity was determined with the aid of the Bioanalyzer 2100 (Agilent). […]
After the reaction, this run was diluted 1:4 and thereof 2 μL per each quantitative RT-PCR were used. This was performed in a LightCycler 480 under standard conditions in the SybrGreen format with annealing temperatures determined for each primer individually. […]
The specificity was verified by melting curve analysis and subsequent gel electrophoresis. For each PCR the PCR efficiency and the Cq value was determined by the program LinRegPCR and these were used in further calculations. […] Every measured value from FIGS. 5A-5I represents a mean value of 3 independent biologic samples. […]

[6] = system: outer hair cells (OHC) in the inner ear; test: Immunohistochemical experiments: dying of outer hair cells after acoustic trauma; assay type: in vivo; conditions: guinea pig, intratympanic, total 0.2 mg per ear, day 14
Description: (§8) To induce an acoustic trauma, guinea pigs were anesthetized with 60 mg/kg ketamine and 8 mg/kg xylazine. Then Bepanten ointment (Bayer) was administered to the eyes and the animal was put in a soundproof chamber. A calibrated speaker was placed directly above the head of the animal, wherein it was set to emit a half octave band, centered around 8 kHz, with a volume of 110 dB for duration of 30 minutes.
The thermosensitive, liquid mixture was administered under view by a Hamilton syringe directly in front of the round window membrane of the middle ear (10 μL). The first dose 6-fluoro-9-methyl-β-carboline (e.g. 0.07 mg) was administered one hour after the acoustic trauma in a concentration of 0.007 mg/μL and the second dose 6-fluoro-9-methyl-β-carboline (0.035 mg in a volume of 5 μL) on day 3. Here, only one ear per animal was treated, while the second ear served as intra-individual control. The control here is particularly abbreviated to “contr.”. In comparative experiments it was found, that administration of just an active agent vehicle (hydrogel) has no effect in comparison to a fully untreated ear. For each active agent (including the controls) four guinea pigs were examined.
On day 14 after the acoustic trauma the region of the ear was dissected so that it contained the cochlea. […] In this way the sound induced damage can be localized and quantified. […]

[7] = system: human neuroblastoma cells (SH-SY5Y); test: Differentiation of human neuroblastoma cells (SH-SY5Y), morphological examination; assay type: cell-based
Description: The SH-SY5Y cell line was obtained from the German collection of microorganisms and cell cultures—DSMZ, Braunschweig. The cells were cultivated in MEM (Minimum essential medium, Life Technologies) with 10% FCS (fetal calf serum, Biochrom AG) and penicillin/streptomycin (Biochrom AG). For morphological examinations the cells were seeded in a density of 1.5×10^4 cells/cm^2 in 24-well plates (Falcon, cell culture treated) with 1 mL medium. A stock solution of 10 mmol/L of the compound according to the invention 6-fluoro-9-methyl-β-carboline was prepared in 50% ethanol and sterile filtered. Five hours after seeding of the cells the compound according to the invention 6-fluoro-9-methyl-β-carboline was added in the corresponding amount to the medium achieving the desired final concentration. The medium was changed once a week. The cells were regularly microscopically examined. Microscopic images were taken at BZ Keyence 10 with a 10×lens and 4×digital zoom. An automatic contrast enhancement was made with the program BZ Analyzer.

physchem = conditions: water
Description: Furthermore, the solubility of both compounds in water was determined by preparing concentration series of both compounds in water at room temperature. The concentration at which the compound was barely soluble was determined by external calibration. The corresponding concentration was quantified by HPLC.

hearing threshold = test: Acoustically evoked potentials: hearing threshold after acoustic trauma; assay type: in vivo; conditions: guinea pig, total 0.35 mg per ear
Description: as §8, with “trigger” for “induce”
As measure for evaluation of the hearing threshold of the guinea pig acoustically evoked potentials were measured. Therefore, the electrophysiological activity of the nerve cells in the brain stem that forward impulses from the inner ear was derived after sonication of the ear with 8, 11.3, 16, 22.6 and 32 kHz. The sonification was carried out ascendingly from 0 dB to 90 dB in single steps of 5 dB.
The measurement was carried out 3 days before the acoustic trauma (D-3), 30 minutes after the acoustic trauma (D0) as well as 14 days after the acoustic trauma (D14).
Per animal one ear was not treated and used as intra-individual control (hierin partly abbreviated to “contr.”) and the second ear was treated with 6-fluoro-9-methyl-β-carboline. Therefore, one hour after the acoustic trauma a dose of 0.12 mg 6-fluoro-9-methyl-β-carboline (in a hydrogel as vehicle) was administered intratympanically. 3 days after the acoustic trauma a further intratympanic administration of 0.06 mg 6-fluoro-9-methyl-β-carboline was carried out. The measurements were conducted on four guinea pigs (n=4).
Afterwards, the remaining shift of hearing threshold (also named as permanent shift of hearing threshold) was determined from the measured values before the acoustic trauma (D-3) and after 14 days (D14). From the measured values directly after the acoustic trauma (D0) and after 14 days (D14) the recovery from the trauma (D0-D14) was also determined.
Analogous to the above performed experiments with 6-fluoro-9-methyl-β-carboline, also corresponding experiments with 9-methyl-β-carboline were performed. The experimental procedure was nearly identical, wherein of course 9-methyl-β-carboline instead of 6-fluoro-9-methyl-β-carboline was used. The total dose of 9-methyl-β-carboline was here 0.2 mg and 0.35 mg per ear, respectively.

SMILES | DRD2S expression relative to expression induced by 9MβC ([1]; 2-day exposition) | DRD2S expression relative to expression induced by 9MβC ([1]; 7-day exposition) | DRD2S expression relative to expression induced by 9MβC ([1]; 14-day exposition) | elimination half time [2] | DKK1 expression relative to expression induced by 9MβC ([3]; 2-day exposition) [times] | DKK1 expression relative to expression induced by 9MβC ([3]; 7-day exposition) | DKK1 expression relative to expression induced by 9MβC ([3]; 14-day exposition) [times] | Lif expression relative to expression induced by 9MβC ([4]; 2-day exposition) | Lif expression relative to expression induced by 9MβC ([4]; 7-day exposition) | Lif expression relative to expression induced by 9MβC ([4]; 14-day exposition) | BDNF expression relative to expression induced by 9MβC ([5]; 2-day exposition) | BDNF expression relative to expression induced by 9MβC ([5]; longer expositions (7 and 14 days)) | acoustic trauma-induced dying of outer hair cells [6] | neurite growth as indication of differentiation ([7]; 50 μM, compared to 30 μM 6-fluoro-9-methyl-β-carboline) | concentration at which a comparable differentiation of the tested cells is observed ([7]; SH-SY5Y, 15 days incubation) | solubility (physchem) [µg/mL] | improvement of the recovery of hearing threshold (D1-D14) vs untreated control (hearing threshold)
Cn1c2cnccc2c2ccc(F)cc21 [7F9MβC, 7-fluoro-9-methyl-β-carboline] | twice as high | comparable | slightly weaker | approximately 5.0 h | 1.4 | comparable | 2.2 | approximately three times higher | weaker | comparable | approximately three times higher | comparable |  |  |  |  | 
Cn1c2ccccc2c2ccncc21 [9MβC, 9-methyl-β-carboline] |  |  |  | approximately 3.4 h |  |  |  |  |  |  |  |  | could counteract the dying of outer hair cells | too low neurite growth | approximately 70 μM | 168 (≈ 924 µM) | about 10 dB
